Results from patent US20220040349A1, “ANTIVIRAL METHODS AND COMPOSITIONS” (priority 2020, published 2022).
“Also recorded” adds a separate entry of the source.

How the values were obtained:
E. coli [1] = test: Killing of E. coli suspended in solution under irradiation or dark incubation (Part IV); format: cell-based; settings: for killing of E. coli / killing of E. coli at longer times: 1-10 μg/mL; for killing of E. coli: five minutes of irradiation; for killing of E. coli at longer times: longer than five minutes; for activity against E. coli in suspension in the dark: dark incubation
Text: (§1) In the current study we have observed Compound E, Compound D, and Formula X in aqueous media with suspensions of E. coli and SARS-CoV-2 for Compound E and with suspensions of E. coli for Compound D and Formula X. We have also studied these oligomers as supported coatings on various supporting materials including wipe scaffolds, commercial Kimwipes, and proprietary materials from Diamond Wipes and HYDAC.

E coli = test: Light-activated killing of bacteria (Example III-1); format: cell-based
Text: No killing of bacteria in the dark has yet been observed.

E. coli [2] = test: Killing of E. coli by compound coated on wet wipe surface or filter; format: cell-based
Text: Compound E was applied to a wet wipe surface and also to the surface of a filter for filtration of air or water.
as §1

SARS-CoV-2 [3] = test: Compound E-coated glass fiber filter: inactivation of SARS-CoV-2 under cool white light, plaque assay on Vero E6 cells; format: cell-based; settings: for inactivation of the virus: coated on glass fiber, cool white
SARS-CoV-2 [4] = test: Compound E in solution: inactivation of SARS-CoV-2 under cool white light, plaque assay on Vero E6 cells; format: cell-based
mammal models = settings: in vivo
bacteria = test: Antibacterial activity of oligomer IX under visible light and in the dark; format: cell-based
SARS-CoV-2 [5] = format: cell-based; settings: cool white; 30 minutes irradiation (earliest point)

Cn1cc[n+](CCCOc2ccc(C#Cc3ccc(C#Cc4ccc(OCCC[n+]5ccn(C)c5)cc4)cc3)cc2)c1 [Compound D]
killing of E. coli (E. coli [1]; near UV): ~99%
killing of E. coli at longer times (E. coli [1]; near UV): complete killing
activity against E. coli in suspension in the dark (E. coli [1]): neither compound showed any killing; also recorded: not under visible light or dark conditions
activity against E. coli in suspension under near-UV (E. coli [1]): had activity
activity against E. coli in suspension under visible light (E. coli [1]; visible light): not under visible light or dark conditions
relative reactivity (E coli): more reactive than Compound E
anti-bacterial activity using LuzChem cool white light (E coli): excellent anti-bacterial activity
killing of bacteria in the dark (E coli): No killing
light-activated killing of bacteria (E coli): excellent light-activated killing

Cn1cc[n+](CCCOc2ccc(C#Cc3ccc(C#Cc4ccc(OCCC[n+]5ccn(C)c5)cc4)s3)cc2)c1 [Compound E]
light-activated killing of E. coli on coated surface (E. coli [2]; applied to wet wipe surface and filter surface): strong light-activated killing
activity against E. coli on a filter in the dark (E. coli [2]; dark conditions): not in dark conditions
activity when coated surface immersed in suspension of E. coli (E. coli [2]; surface immersed in E. coli suspension): activity was retained
activity against E. coli on a filter (E. coli [2]; visible light and near-UV): had activity
inactivation of the virus (SARS-CoV-2 [3]; 10 minutes irradiation): about 90%
inactivation of the virus (SARS-CoV-2 [3]; 30 minutes): 3 log
activity against SARS-Cov-2 on a filter (SARS-CoV-2 [3]; visible light and near-UV): had activity
killing of E. coli (E. coli [1]; visible light): ~99%
killing of E. coli at longer times (E. coli [1]; visible light): complete killing
activity against E. coli in suspension in the dark (E. coli [1]): neither compound showed any killing; also recorded: not in dark conditions
activity against E. coli in suspension under near-UV (E. coli [1]): had activity
activity against E. coli in suspension under visible light (E. coli [1]; visible light): had activity
anti-bacterial activity using LuzChem cool white light (E coli): excellent anti-bacterial activity
killing of bacteria in the dark (E coli): No killing
light-activated killing of bacteria (E coli): excellent light-activated killing
activity against SARS-Cov-2 in suspension in the dark (SARS-CoV-2 [4]; dark conditions): not in dark conditions
inactivation of the virus (SARS-CoV-2 [4]; solution (10 μg/mL), cool white, 5 minutes of irradiation): > 95%
inactivation at longer irradiation (SARS-CoV-2 [4]; solution, cool white, 10 minutes or longer): complete deactivation inactivation
activity against SARS-Cov-2 in suspension (SARS-CoV-2 [4]; visible light and near-UV): had activity
toxicity against mammal models (mammal models): no toxicity

C[N+](C)(C)CCCOc1ccc(C#Cc2ccc(C#Cc3ccc(OCCC[N+](C)(C)C)cc3)cc2)cc1 [Formula IX]
activity against bacteria in the dark (bacteria; dark): active against bacteria in the dark
activity under visible light irradiation (bacteria; visible light): not active under visible light irradiation

C[N+](C)(C)CCCOc1ccc(C#Cc2ccc(C#Cc3ccc(OCCC[N+](C)(C)C)cc3)s2)cc1 [Formula X]
activity against E. coli in suspension in the dark (E. coli [1]): considerable dark reactivity; also recorded: had activity
activity against E. coli in suspension under near-UV (E. coli [1]): activity under visible light and near-UV; also recorded: had activity
activity against E. coli in suspension under visible light (E. coli [1]; visible light): activity under visible light and near-UV; also recorded: had activity
virus present (SARS-CoV-2 [5]): no virus present
